Measured values as given in patent US20240158446A1, “CYCLIC COMPOUND HAVING SELECTIVE INHIBITORY ACTION ON KRAS OVER HRAS AND NRAS” (CHUGAI SEIYAKU KABUSHIKI KAISHA, priority 2021, published 2024).

How the values were obtained:
[1] = biological target: GDP-bound HRAS wild-type protein (Homo sapiens, UniProt P01112); assay: Binding to HRAS by surface plasmon resonance (SPR), Single Cycle Kinetics; details: SPR KD ratio HRAS/KRAS, class symbols
[2] = biological target: GDP-bound KRAS wild-type protein (Homo sapiens, UniProt P01116); assay: Binding to KRAS by surface plasmon resonance (SPR), Single Cycle Kinetics; details: SPR Single Cycle Kinetics, GDP-bound KRAS wild-type protein, 1:1 binding model; read-out: KRAS KD
[3] = biological target: GDP-bound NRAS wild-type protein (Homo sapiens, UniProt P01111); assay: Binding to NRAS by surface plasmon resonance (SPR), Single Cycle Kinetics; details: SPR KD ratio NRAS/KRAS, class symbols
GDP-bound NRAS wild-type protein, sequence (P01111 whole entry): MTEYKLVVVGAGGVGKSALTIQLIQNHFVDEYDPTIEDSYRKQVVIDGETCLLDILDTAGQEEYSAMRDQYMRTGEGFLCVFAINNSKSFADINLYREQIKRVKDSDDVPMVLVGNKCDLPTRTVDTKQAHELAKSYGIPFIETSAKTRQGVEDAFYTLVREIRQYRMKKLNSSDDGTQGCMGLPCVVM

GDP-bound HRAS wild-type protein, sequence (P01112 whole entry): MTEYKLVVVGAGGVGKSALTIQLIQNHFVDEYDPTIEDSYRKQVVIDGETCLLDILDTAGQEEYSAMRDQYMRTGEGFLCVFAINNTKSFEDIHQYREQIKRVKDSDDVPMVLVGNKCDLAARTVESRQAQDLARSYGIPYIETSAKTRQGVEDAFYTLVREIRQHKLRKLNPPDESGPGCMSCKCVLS
GDP-bound KRAS wild-type protein, sequence (P01116 whole entry): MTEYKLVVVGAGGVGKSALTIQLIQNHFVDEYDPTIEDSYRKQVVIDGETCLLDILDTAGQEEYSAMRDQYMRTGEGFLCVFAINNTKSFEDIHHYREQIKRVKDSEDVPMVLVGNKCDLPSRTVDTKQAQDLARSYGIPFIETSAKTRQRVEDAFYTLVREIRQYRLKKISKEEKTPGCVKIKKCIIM

Kd [2] [nM]	Compound	HRAS/KRAS (ratio of KD value with respect to GDP-bound HRAS wild-type protein to KD value with respect to KRAS) [1]	NRAS/KRAS (ratio of KD value with respect to GDP-bound NRAS wild-type protein to KD value with respect to KRAS) [3]
0.1	CCC(CC)[C@H]1C(=O)N(C)[C@H](C(=O)N(C)C)CC(=O)N(C)[C@H]2CCC/C=C/c3ccc(cc3)C[C@@H](C(=O)N(C)CC(=O)N[C@@H](CCc3cc(F)c(C(F)(F)F)c(F)c3)C(=O)N3C[C@H](OC(C)C)C[C@H]3C(=O)NC3(CC(C)(C)C3)C(=O)N1C)N1CC/C=C\C[C@@H](C1=O)N(C)C(=O)CN(C)C(=O)[C@H]([C@@H](C)CC)NC2=O [PP2594]	A (a compound having 10 or more and less than 20 is denoted as A)	A (a compound having 10 or more and less than 20 is denoted as A)
0.17	CC[C@H](C)[C@@H]1NC(=O)[C@@H]2CCC/C=C/c3ccc(cc3)C[C@@H](C(=O)N(C)CC(=O)N[C@@H](CCc3ccc(Cl)c(Cl)c3)C(=O)N3C[C@H](OC(C)C)C[C@H]3C(=O)NC3(CC(C)(C)C3)C(=O)N(C)[C@@H](C3CCCC3)C(=O)N(C)[C@H](C(=O)N(C)CC)CC(=O)N2C)N2CC/C=C\C[C@@H](C2=O)N(C)C(=O)CN(C)C1=O [PP2595]	B (a compound having 3 or more and less than 10 is denoted as B)	A (a compound having 10 or more and less than 20 is denoted as A)
0.16	CC[C@H](C)[C@@H]1NC(=O)[C@@H]2CCC/C=C/c3ccc(cc3)C[C@@H](C(=O)N(C)CC(=O)N[C@@H](CCc3ccc(Cl)c(Cl)c3)C(=O)N3C[C@H](OC(C)C)C[C@H]3C(=O)NC3(CC(C)(C)C3)C(=O)N(C)[C@@H](C3CCCC3)C(=O)N(C)[C@H](C(=O)N3CCCC3)CC(=O)N2C)N2CC/C=C\C[C@@H](C2=O)N(C)C(=O)CN(C)C1=O [PP2596]	A (a compound having 10 or more and less than 20 is denoted as A)	A (a compound having 10 or more and less than 20 is denoted as A)
0.2	CC[C@H](C)[C@@H]1NC(=O)[C@@H]2CCC/C=C/c3ccc(cc3)C[C@@H](C(=O)N(C)CC(=O)N[C@@H](CCc3ccc(Cl)c(Cl)c3)C(=O)N3CCC[C@H]3C(=O)NC3(CC(C)(C)C3)C(=O)N(C)[C@@H](C3CCCC3)C(=O)N(C)[C@H](C(=O)N(C)CC)CC(=O)N2C)N2CC/C=C\C[C@@H](C2=O)N(C)C(=O)CN(C)C1=O [PP2601]	A (a compound having 10 or more and less than 20 is denoted as A)	A (a compound having 10 or more and less than 20 is denoted as A)

More lines, now with the values behind:

Compound	Kd [2] [nM]	HRAS/KRAS (ratio of KD value with respect to GDP-bound HRAS wild-type protein to KD value with respect to KRAS) [1]	NRAS/KRAS (ratio of KD value with respect to GDP-bound NRAS wild-type protein to KD value with respect to KRAS) [3]
CCO[C@@H]1C[C@H]2C(=O)NC3(CC(C)(C)C3)C(=O)N(C)[C@@H](C3CCCC3)C(=O)N(C)[C@H](C(=O)N3CCCCC3)CC(=O)N(C)[C@H]3CC/C=C/c4ccc(cc4)C[C@@H](C(=O)N(C)CC(=O)N[C@@H](CCc4ccc(Cl)c(Cl)c4)C(=O)N2C1)N1CC/C=C\C[C@@H](C1=O)N(C)C(=O)CN(C)C(=O)[C@H]([C@@H](C)CC)NC3=O [PP2597]	0.51	A (a compound having 10 or more and less than 20 is denoted as A)	A (a compound having 10 or more and less than 20 is denoted as A)
CCC(CC)[C@H]1C(=O)N(C)[C@H](C(=O)N(C)C)CC(=O)N(C)[C@H]2CCC/C=C/c3ccc(cc3)C[C@@H](C(=O)N(C)CC(=O)N[C@@H](CCc3cc(F)c(C(F)(F)F)c(F)c3)C(=O)N3CCC[C@H]3C(=O)NC3(CC(C)(C)C3)C(=O)N1C)N1CC/C=C\C[C@@H](C1=O)N(C)C(=O)CN(C)C(=O)[C@H]([C@@H](C)CC)NC2=O [PP2600]	0.17	A (a compound having 10 or more and less than 20 is denoted as A)	A (a compound having 10 or more and less than 20 is denoted as A)
CC[C@H](C)[C@@H]1NC(=O)[C@@H]2CCC/C=C/c3ccc(cc3)C[C@@H](C(=O)N(C)CC(=O)N[C@@H](CCc3ccc(Cl)c(Cl)c3)C(=O)N3CCC[C@H]3C(=O)NC3(CC(C)(C)C3)C(=O)N(C)[C@@H](C3CCCC3)C(=O)N(C)[C@H](C(=O)N3CCCC3)CC(=O)N2C)N2CC/C=C\C[C@@H](C2=O)N(C)C(=O)CN(C)C1=O [PP2602]	0.25	A (a compound having 10 or more and less than 20 is denoted as A)	A (a compound having 10 or more and less than 20 is denoted as A)
